According to the supplement of paper PMC10307832:

How the values were obtained:
Test in all cases: relative viability (nuclei count vs DMSO), 5 days (fraction); higher = more cells survive
Dactolisib + Bortezomib = compound: Cn1c(=O)n(-c2ccc(C(C)(C)C#N)cc2)c2c3cc(-c4cnc5ccccc5c4)ccc3ncc21 [Dactolisib] + CC(C)C[C@H](NC(=O)[C@H](Cc1ccccc1)NC(=O)c1cnccn1)B(O)O [Bortezomib] (partner 0.002 µM)
Summary of the method: (§1)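 Lung cancer cell lines, seeded in 1536-well plates, were treated the following day by pin tool with a single drug or with five library-drug doses (not always all listed) in √10 steps on top of a fixed anchor-drug dose. Cells were fixed and nuclei stained in one step after 5 days, and nuclei were counted. Relative viability is the nuclei count for treated wells divided by that for vehicle wells, reported as medians of duplicate plates.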

AZ505 + Crizotinib = compound: C1CCC(CC1)N(CCNCCC2=C3C(=C(C=C2)O)NC(=O)CO3)C(=O)CCNCCC4=CC(=C(C=C4)Cl)Cl [AZ505] + C[C@@H](Oc1cc(-c2cnn(C3CCNCC3)c2)cnc1N)c1c(Cl)ccc(F)c1Cl [Crizotinib] (partner 1 µM)
Summary of the method: as §1

Dactolisib + Vorinostat = compound: Cn1c(=O)n(-c2ccc(C(C)(C)C#N)cc2)c2c3cc(-c4cnc5ccccc5c4)ccc3ncc21 [Dactolisib] + O=C(CCCCCCC(=O)Nc1ccccc1)NO [Vorinostat] (partner 1 µM)
Summary of the method: as §1

AZ505 + Palbociclib = compound: C1CCC(CC1)N(CCNCCC2=C3C(=C(C=C2)O)NC(=O)CO3)C(=O)CCNCCC4=CC(=C(C=C4)Cl)Cl [AZ505] + CC(=O)c1c(C)c2cnc(Nc3ccc(N4CCNCC4)cn3)nc2n(C2CCCC2)c1=O [Palbociclib] (partner 0.5 µM)
Summary of the method: as §1

201T
relative viability (Dactolisib + Bortezomib; first compound 0.002 µM): 1.05 | relative viability (Dactolisib + Bortezomib; first compound 0.006325 µM): 1.08 | relative viability (Dactolisib + Bortezomib; first compound 0.02 µM): 1.08 | relative viability (Dactolisib + Bortezomib; first compound 0.06325 µM): 1.07 | relative viability (Dactolisib + Bortezomib; first compound 0.2 µM): 0.856 | relative viability (AZ505 + Crizotinib; first compound 0.08 µM): 0.986 | relative viability (AZ505 + Crizotinib; first compound 0.253 µM): 1.03 | relative viability (AZ505 + Crizotinib; first compound 0.8 µM): 0.932 | relative viability (AZ505 + Crizotinib; first compound 2.53 µM): 1.01 | relative viability (AZ505 + Crizotinib; first compound 8 µM): 1.02 | relative viability (Dactolisib + Vorinostat; first compound 0.002 µM): 0.987 | relative viability (Dactolisib + Vorinostat; first compound 0.006325 µM): 0.981 | relative viability (Dactolisib + Vorinostat; first compound 0.02 µM): 0.976 | relative viability (Dactolisib + Vorinostat; first compound 0.06325 µM): 0.622 | relative viability (Dactolisib + Vorinostat; first compound 0.2 µM): 0.729 | relative viability (AZ505 + Palbociclib; first compound 0.08 µM): 0.36 | relative viability (AZ505 + Palbociclib; first compound 0.253 µM): 0.353 | relative viability (AZ505 + Palbociclib; first compound 0.8 µM): 0.331 | relative viability (AZ505 + Palbociclib; first compound 2.53 µM): 0.357 | relative viability (AZ505 + Palbociclib; first compound 8 µM): 0.353

A549
relative viability (AZ505 + Crizotinib; first compound 0.08 µM): 0.661 | relative viability (AZ505 + Crizotinib; first compound 0.253 µM): 0.849 | relative viability (AZ505 + Crizotinib; first compound 0.8 µM): 0.692 | relative viability (AZ505 + Crizotinib; first compound 2.53 µM): 0.776 | relative viability (AZ505 + Crizotinib; first compound 8 µM): 0.608

A-427
relative viability (Dactolisib + Bortezomib; first compound 0.002 µM): 0.947 | relative viability (Dactolisib + Bortezomib; first compound 0.006325 µM): 0.959 | relative viability (Dactolisib + Bortezomib; first compound 0.02 µM): 0.966 | relative viability (Dactolisib + Bortezomib; first compound 0.06325 µM): 0.61 | relative viability (Dactolisib + Bortezomib; first compound 0.2 µM): 0.581 | relative viability (AZ505 + Crizotinib; first compound 0.08 µM): 0.771 | relative viability (AZ505 + Crizotinib; first compound 0.253 µM): 0.829 | relative viability (AZ505 + Crizotinib; first compound 0.8 µM): 0.766 | relative viability (AZ505 + Crizotinib; first compound 2.53 µM): 0.837 | relative viability (AZ505 + Crizotinib; first compound 8 µM): 0.944 | relative viability (Dactolisib + Vorinostat; first compound 0.002 µM): 0.894 | relative viability (Dactolisib + Vorinostat; first compound 0.006325 µM): 0.864 | relative viability (Dactolisib + Vorinostat; first compound 0.02 µM): 0.834 | relative viability (Dactolisib + Vorinostat; first compound 0.06325 µM): 0.706 | relative viability (Dactolisib + Vorinostat; first compound 0.2 µM): 0.647 | relative viability (AZ505 + Palbociclib; first compound 0.08 µM): 0.529 | relative viability (AZ505 + Palbociclib; first compound 0.253 µM): 0.526 | relative viability (AZ505 + Palbociclib; first compound 0.8 µM): 0.499 | relative viability (AZ505 + Palbociclib; first compound 2.53 µM): 0.512 | relative viability (AZ505 + Palbociclib; first compound 8 µM): 0.527

ABC-1
relative viability (Dactolisib + Bortezomib; first compound 0.002 µM): 0.345 | relative viability (Dactolisib + Bortezomib; first compound 0.006325 µM): 0.296 | relative viability (Dactolisib + Bortezomib; first compound 0.02 µM): 0.303 | relative viability (Dactolisib + Bortezomib; first compound 0.06325 µM): 0.312 | relative viability (Dactolisib + Bortezomib; first compound 0.2 µM): 0.247 | relative viability (AZ505 + Crizotinib; first compound 0.08 µM): 1.01 | relative viability (AZ505 + Crizotinib; first compound 0.253 µM): 1.12 | relative viability (AZ505 + Crizotinib; first compound 0.8 µM): 1.19 | relative viability (AZ505 + Crizotinib; first compound 2.53 µM): 1.21 | relative viability (AZ505 + Crizotinib; first compound 8 µM): 1.24 | relative viability (Dactolisib + Vorinostat; first compound 0.002 µM): 1.19 | relative viability (Dactolisib + Vorinostat; first compound 0.006325 µM): 1.34 | relative viability (Dactolisib + Vorinostat; first compound 0.02 µM): 0.94 | relative viability (Dactolisib + Vorinostat; first compound 0.06325 µM): 0.824 | relative viability (Dactolisib + Vorinostat; first compound 0.2 µM): 0.529 | relative viability (AZ505 + Palbociclib; first compound 0.08 µM): 0.469 | relative viability (AZ505 + Palbociclib; first compound 0.8 µM): 0.686 | relative viability (AZ505 + Palbociclib; first compound 2.53 µM): 0.661 | relative viability (AZ505 + Palbociclib; first compound 8 µM): 0.517

BEN
relative viability (Dactolisib + Bortezomib; first compound 0.002 µM): 0.766 | relative viability (Dactolisib + Bortezomib; first compound 0.006325 µM): 0.795 | relative viability (Dactolisib + Bortezomib; first compound 0.02 µM): 0.809 | relative viability (Dactolisib + Bortezomib; first compound 0.06325 µM): 0.598 | relative viability (Dactolisib + Bortezomib; first compound 0.2 µM): 0.289 | relative viability (AZ505 + Crizotinib; first compound 0.08 µM): 0.789 | relative viability (AZ505 + Crizotinib; first compound 0.253 µM): 0.889 | relative viability (AZ505 + Crizotinib; first compound 0.8 µM): 0.854 | relative viability (AZ505 + Crizotinib; first compound 2.53 µM): 0.816 | relative viability (AZ505 + Crizotinib; first compound 8 µM): 1.07 | relative viability (Dactolisib + Vorinostat; first compound 0.002 µM): 0.555 | relative viability (Dactolisib + Vorinostat; first compound 0.006325 µM): 0.577 | relative viability (Dactolisib + Vorinostat; first compound 0.02 µM): 0.562 | relative viability (Dactolisib + Vorinostat; first compound 0.06325 µM): 0.478 | relative viability (Dactolisib + Vorinostat; first compound 0.2 µM): 0.383 | relative viability (AZ505 + Palbociclib; first compound 0.08 µM): 0.458 | relative viability (AZ505 + Palbociclib; first compound 0.253 µM): 0.457 | relative viability (AZ505 + Palbociclib; first compound 0.8 µM): 0.442 | relative viability (AZ505 + Palbociclib; first compound 2.53 µM): 0.48 | relative viability (AZ505 + Palbociclib; first compound 8 µM): 0.498

CAL-12T
relative viability (Dactolisib + Bortezomib; first compound 0.002 µM): 1.05 | relative viability (Dactolisib + Bortezomib; first compound 0.006325 µM): 1.13 | relative viability (Dactolisib + Bortezomib; first compound 0.02 µM): 0.825 | relative viability (Dactolisib + Bortezomib; first compound 0.06325 µM): 0.721 | relative viability (Dactolisib + Bortezomib; first compound 0.2 µM): 0.338 | relative viability (AZ505 + Crizotinib; first compound 0.08 µM): 0.599 | relative viability (AZ505 + Crizotinib; first compound 0.253 µM): 0.753 | relative viability (AZ505 + Crizotinib; first compound 0.8 µM): 0.535 | relative viability (AZ505 + Crizotinib; first compound 2.53 µM): 0.684 | relative viability (AZ505 + Crizotinib; first compound 8 µM): 0.563 | relative viability (Dactolisib + Vorinostat; first compound 0.002 µM): 0.798 | relative viability (Dactolisib + Vorinostat; first compound 0.006325 µM): 0.913 | relative viability (Dactolisib + Vorinostat; first compound 0.02 µM): 0.722 | relative viability (Dactolisib + Vorinostat; first compound 0.06325 µM): 0.209 | relative viability (Dactolisib + Vorinostat; first compound 0.2 µM): 0.199 | relative viability (AZ505 + Palbociclib; first compound 0.08 µM): 0.324 | relative viability (AZ505 + Palbociclib; first compound 0.253 µM): 0.437 | relative viability (AZ505 + Palbociclib; first compound 0.8 µM): 0.372 | relative viability (AZ505 + Palbociclib; first compound 2.53 µM): 0.477 | relative viability (AZ505 + Palbociclib; first compound 8 µM): 0.618

COR-L23
relative viability (Dactolisib + Bortezomib; first compound 0.002 µM): 1.21 | relative viability (Dactolisib + Bortezomib; first compound 0.006325 µM): 0.803 | relative viability (Dactolisib + Bortezomib; first compound 0.02 µM): 0.765 | relative viability (Dactolisib + Bortezomib; first compound 0.06325 µM): 0.327 | relative viability (Dactolisib + Bortezomib; first compound 0.2 µM): 0.149 | relative viability (AZ505 + Crizotinib; first compound 0.08 µM): 0.42 | relative viability (AZ505 + Crizotinib; first compound 0.253 µM): 0.621 | relative viability (AZ505 + Crizotinib; first compound 0.8 µM): 0.518 | relative viability (AZ505 + Crizotinib; first compound 2.53 µM): 0.567 | relative viability (AZ505 + Crizotinib; first compound 8 µM): 0.385 | relative viability (Dactolisib + Vorinostat; first compound 0.002 µM): 0.367 | relative viability (Dactolisib + Vorinostat; first compound 0.006325 µM): 0.363 | relative viability (Dactolisib + Vorinostat; first compound 0.02 µM): 0.277 | relative viability (Dactolisib + Vorinostat; first compound 0.06325 µM): 0.157 | relative viability (Dactolisib + Vorinostat; first compound 0.2 µM): 0.161 | relative viability (AZ505 + Palbociclib; first compound 0.08 µM): 0.259 | relative viability (AZ505 + Palbociclib; first compound 0.253 µM): 0.253 | relative viability (AZ505 + Palbociclib; first compound 0.8 µM): 0.264 | relative viability (AZ505 + Palbociclib; first compound 2.53 µM): 0.284 | relative viability (AZ505 + Palbociclib; first compound 8 µM): 0.281

COR-L 105
relative viability (Dactolisib + Bortezomib; first compound 0.002 µM): 0.784 | relative viability (Dactolisib + Bortezomib; first compound 0.006325 µM): 0.888 | relative viability (Dactolisib + Bortezomib; first compound 0.02 µM): 0.553 | relative viability (Dactolisib + Bortezomib; first compound 0.06325 µM): 0.28 | relative viability (Dactolisib + Bortezomib; first compound 0.2 µM): 0.274 | relative viability (AZ505 + Crizotinib; first compound 0.08 µM): 0.579 | relative viability (AZ505 + Crizotinib; first compound 0.253 µM): 0.964 | relative viability (AZ505 + Crizotinib; first compound 0.8 µM): 0.75 | relative viability (AZ505 + Crizotinib; first compound 2.53 µM): 0.963 | relative viability (AZ505 + Crizotinib; first compound 8 µM): 0.793 | relative viability (Dactolisib + Vorinostat; first compound 0.002 µM): 0.677 | relative viability (Dactolisib + Vorinostat; first compound 0.006325 µM): 0.88 | relative viability (Dactolisib + Vorinostat; first compound 0.02 µM): 0.828 | relative viability (Dactolisib + Vorinostat; first compound 0.06325 µM): 0.402 | relative viability (Dactolisib + Vorinostat; first compound 0.2 µM): 0.394 | relative viability (AZ505 + Palbociclib; first compound 0.08 µM): 0.399 | relative viability (AZ505 + Palbociclib; first compound 0.253 µM): 0.405 | relative viability (AZ505 + Palbociclib; first compound 0.8 µM): 0.369 | relative viability (AZ505 + Palbociclib; first compound 2.53 µM): 0.406 | relative viability (AZ505 + Palbociclib; first compound 8 µM): 0.399

Calu-6
relative viability (Dactolisib + Bortezomib; first compound 0.002 µM): 1.08 | relative viability (Dactolisib + Bortezomib; first compound 0.006325 µM): 1.07 | relative viability (Dactolisib + Bortezomib; first compound 0.02 µM): 1.06 | relative viability (Dactolisib + Bortezomib; first compound 0.06325 µM): 0.593 | relative viability (Dactolisib + Bortezomib; first compound 0.2 µM): 0.387 | relative viability (AZ505 + Crizotinib; first compound 0.08 µM): 0.735 | relative viability (AZ505 + Crizotinib; first compound 0.253 µM): 0.806 | relative viability (AZ505 + Crizotinib; first compound 0.8 µM): 0.785 | relative viability (AZ505 + Crizotinib; first compound 2.53 µM): 0.589 | relative viability (AZ505 + Crizotinib; first compound 8 µM): 0.748
